Assay results reported in patent publication US9072293B2, “Cyclopropenes and method for applying cyclopropenes to agricultural products or crops” (Erum Biotechnologies Inc., priority 2010, dated 2015).
Several values for one entry are separate records, joined by “and”; a condition that tells them apart may be missing. Equal values may be shown once.

How the values were obtained:
[1] = Relative chemical stability of cyclopropenes measured by 1H-NMR; type: physicochemical; conditions: for Stability (relative chemical stability, based on cyclopropenes having a chain length of 1): 1H-NMR, CDCl3, stored at −20° C. or room temperature, relative to chain length 1
Text: A variety of analysis methods can be used to analyze the derivatives of Formula 6, since the absorbance of cyclopropenes containing an aryl group can be easily measured in the UV range. It can be confirmed that the chemical stability of the derivatives increases, when the length of chains to link an aryl ring to a cyclopropene ring is 2 or more. […] It is supposed that the stability of cyclopropenes increase due to the fact that π electrons of aryl groups affect π electrons of cyclopropenes.
The following Table 1 summarizes the relative chemical stability of cyclopropenes having a chain length of 2, 3, 4 or 5, based on the chemical stability of cyclopropenes having a chain length of 1. In the case of cyclopropene having a chain length of 1, the structure thereof can be confirmed via ^1H-NMR within one hour following synthesis (degraded to a level of 50% or more within one hour at 30° C.). In the case of cyclopropene having a chain length of zero, synthesis thereof was attempted in accordance with the present invention, but was impossible by a conventional method. Meanwhile, in the case of cyclopropenes having a chain length of 2 or more, the structure thereof can be precisely confirmed by ^1H-NMR as well as ^13C-NMR. The stability of these cyclopropenes was measured by ^1H-NMR while NMR cells (CDCl3) were stored at −20° C. or room temperature. In particular, cyclopropenes having chains of 3 or more were so stable that their half-life reached 5 days or longer at −20° C. or lower. In ^1H-NMR analysis, the stability was evaluated by comparing integral values at 4 to 6.5 ppm (1H) and 0.8 to 0.9 ppm (2H), characteristic peaks of 1-alkylcyclopropenes, using a small amount of 1,1,3,3-tetramethylurea (2.80 ppm) as an internal standard. Furthermore, the stability was also qualitatively evaluated by comparing integral value of the peak newly generated adjacent to the peak of the olefin proton of cyclopropene ring, as a 1-alkylcyclopropene compound is decomposed.

tomato [2] = assay: Experimental Example 1: Efficacy test on tomato using emulsion (reddening grade); type: in vivo; parameters: key: an area in which the surface of tomato was colored in pink was 10% or less; an area in which the surface of tomato was completely colored in red was 10 to 40%; 2: an area in which the surface of tomato was completely colored in red was 40 to 70%; 3: an area in which the surface of tomato was completely colored in red was 70% or more and the bottom area remained green; 4: an area in which the surface of tomato was most colored in red and only a part of (0 to 10%) the bottom area remained green; 5: the surface of tomato did not entirely color in green; conditions: individual tomatoes n=4
Procedure: In situ, a 1.0 mM 1-octylcyclopropene formulation was prepared using (trans)-1-octyl-1-(methanesulfonyloxy)-2-(trimethylsilyl)cyclopropane of Preparation Example 10 in the same manner as in Example 7. This solution was diluted to 1 to 100 times prior to use, as necessary. Experimental Example 1: Efficacy test on tomato using emulsion 1.0 mM formulations of five agents such as 1-(2-phenylethyl)cyclopropene, 1-(3-phenylpropyl)cyclopropene, 1-(4-phenylbutyl)cyclopropene, 1-(5-phenylpentyl)cyclopropene and 1-hexylcyclopropene were prepared in the same manner as in Example 1, and 1.0 mM and 100 μM solutions were prepared therefrom. Then, the effects of the solutions were compared with non-treated groups and control groups in which a surfactant or a stabilizing agent (sodium dodecylbenzenesulfonate or tristyrenylphenykethoxy)12ethanol) is dissolved.
Tomatoes whose top end began to turn pink were screened, harvested and divided into 12 groups (n=4) in total, i.e., non-treated groups, control groups (surfactant) and agent groups with different concentrations such as 100 μM and 1.0 mM. Tomatoes were treated with the prepared agent formulation using a household sprayer such that the surface thereof was saturated. The tomatoes were stood at room temperature (25-30° C.) for 3 days and a reddening level thereof was evaluated based on grades of 0 to 5.
(§1) At this time, the tops of tomatoes most early turned red, while the bottoms thereof most lately turned red. For this reason, in order to accurately evaluate the difference in reddening, the coloring evaluated was based on the area of red color, rather than the color of tomatoes. […] Accordingly, the grade level is proportional to the rate at which the tomatoes ripened.

tomato [3] = assay: Experimental Example 2: Efficacy test on tomato using oil based formulation (reddening grade); type: in vivo; parameters: key: an area in which the surface of tomato was colored in pink was 10% or less; an area in which the surface of tomato was completely colored in red was 10 to 40%; 2: an area in which the surface of tomato was completely colored in red was 40 to 70%; 3: an area in which the surface of tomato was completely colored in red was 70% or more and the bottom area remained green; 4: an area in which the surface of tomato was most colored in red and only a part of (0 to 10%) the bottom area remained green; 5: the surface of tomato did not entirely color in green; conditions: 1.0 mM oil-based formulation, individual tomatoes n=4
Text: as §1
As illustrated in Example 1, in situ, in accordance with the methods of Preparation Examples 15, 16, 17, 18 and 22, five agents (1.0 mmol) such as 1-(2-phenylethyl)cyclopropene, 1-(3-phenylpropyl)cyclopropene, 1-(4-phenylbutyl)cyclopropene, 1-(5-phenylpentyl)cyclopropene and 1-hexylcyclopropene were prepared, 5.0 ml of xylene and 5.0 ml of water were added to the reaction solution, vigorously stirred for 5 minutes and stood. When the mixture was separated into an organic layer (upper layer) and an aqueous layer (lower layer), only the organic layer was collected and the aqueous layer was discarded. […] of hexane was added to the organic layer and homogeneously mixed to prepare a 1.0 mM oil-based formulation.
The tomatoes were screened in the same manner as in Experimental Example 1 and divided into 7 groups (n=4) including a non-treated group, a control group (solvent-treated group) and 5 agent groups. Tomatoes were treated with the previously prepared agent using a household sprayer such that the surface thereof was saturated. The tomatoes were stood at room temperature (25-30° C.) for 3 days and a reddening level thereof was evaluated based on grades of 0 to 5.

| SMILES | chemical stability (in words) [1] | Stability (relative chemical stability, based on cyclopropenes having a chain length of 1) [1] | reddening level (grade 0 to 5) (tomato [2]; 100 μM, Day 0, room temperature (25-30° C.)) | reddening level (grade 0 to 5) (tomato [2]; 100 μM, Day 1, room temperature (25-30° C.)) | reddening level (grade 0 to 5) (tomato [2]; 100 μM, Day 2, room temperature (25-30° C.)) | reddening level (grade 0 to 5) (tomato [2]; 100 μM, Day 3, room temperature (25-30° C.)) | reddening level (grade 0 to 5) (tomato [2]; 1.0 mM, Day 0, room temperature (25-30° C.)) | reddening level (grade 0 to 5) (tomato [2]; 1.0 mM, Day 1, room temperature (25-30° C.)) | reddening level (grade 0 to 5) (tomato [2]; 1.0 mM, Day 2, room temperature (25-30° C.)) | reddening level (grade 0 to 5) (tomato [2]; 1.0 mM, Day 3, room temperature (25-30° C.)) | Tomato results: reddening level (grade 0 to 5) (tomato [3]; Day 0, room temperature (25-30° C.)) | Tomato results: reddening level (grade 0 to 5) (tomato [3]; Day 1, room temperature (25-30° C.)) | Tomato results: reddening level (grade 0 to 5) (tomato [3]; Day 2, room temperature (25-30° C.)) | Tomato results: reddening level (grade 0 to 5) (tomato [3]; Day 3, room temperature (25-30° C.)) |
| --- | --- | --- | --- | --- | --- | --- | --- | --- | --- | --- | --- | --- | --- | --- |
| C1=C(Cc2ccccc2)C1 [1-benzylcyclopropene] | considerably unstable | 1 | – | – | – | – | – | – | – | – | – | – | – | – |
| CCCCCCC1=CC1 [(Hexyl), 1-hexylcyclopropene, reference compound] | – | – | 0 (an area in which the surface of tomato was colored in pink was 10% or less) (2×) and 1 (an area in which the surface of tomato was completely colored in red was 10 to 40%) and 2 (an area in which the surface of tomato was completely colored in red was 40 to 70%) | 1 (an area in which the surface of tomato was completely colored in red was 10 to 40%) (2×) and 3 (an area in which the surface of tomato was completely colored in red was 70% or more and the bottom area remained green) and 4 | 3 (an area in which the surface of tomato was completely colored in red was 70% or more and the bottom area remained green) (2×) and 4 and 5 | 4 and 5 (3×) | 0 (an area in which the surface of tomato was colored in pink was 10% or less) (2×) and 1 (an area in which the surface of tomato was completely colored in red was 10 to 40%) and 2 (an area in which the surface of tomato was completely colored in red was 40 to 70%) | 1 (an area in which the surface of tomato was completely colored in red was 10 to 40%) (2×) and 2 (an area in which the surface of tomato was completely colored in red was 40 to 70%) and 3 (an area in which the surface of tomato was completely colored in red was 70% or more and the bottom area remained green) | 2 (an area in which the surface of tomato was completely colored in red was 40 to 70%) (2×) and 3 (an area in which the surface of tomato was completely colored in red was 70% or more and the bottom area remained green) and 4 | 3 (an area in which the surface of tomato was completely colored in red was 70% or more and the bottom area remained green) (2×) and 5 (2×) | 0 (an area in which the surface of tomato was colored in pink was 10% or less) (2×) and 1 (an area in which the surface of tomato was completely colored in red was 10 to 40%) and 2 (an area in which the surface of tomato was completely colored in red was 40 to 70%) | 1 (an area in which the surface of tomato was completely colored in red was 10 to 40%) (2×) and 2 (an area in which the surface of tomato was completely colored in red was 40 to 70%) and 3 (an area in which the surface of tomato was completely colored in red was 70% or more and the bottom area remained green) | 3 (an area in which the surface of tomato was completely colored in red was 70% or more and the bottom area remained green) and 2 (an area in which the surface of tomato was completely colored in red was 40 to 70%) and 4 and 5 | 4 (2×) and 5 (2×) |
| COc1ccc(CC2=CC2)cc1 [A=—, Z=4-OCH, 1-(4-methoxybenzyl)cyclopropene] | – | ~1 | – | – | – | – | – | – | – | – | – | – | – | – |
